Reference: article PMC10165934 (Emerging Microbes & Infections, 2023)
Read-outs that look alike come from different tables or passages of the source.

How the values were obtained:
SARS-CoV-2 [1] = details: read-out: antiviral EC50; ref 39 (Kasprzyk et al.); cited from earlier work
SARS-CoV-2 NSP14 MTase [2] = biological target: T1, SARS-CoV-2 NSP14 MTase (Severe acute respiratory syndrome coronavirus 2, UniProt P0DTD1); details: read-out: anti-MTase IC50; ref 39 (Kasprzyk et al.); cited from earlier work
SARS-CoV-2 [3] = details: read-out: antiviral EC50; ref 37 (Basu et al.); cited from earlier work
SARS-CoV-2 NSP14 MTase [4] = biological target: T1, SARS-CoV-2 NSP14 MTase; details: read-out: anti-MTase IC50; ref 37 (Basu et al.); cited from earlier work
SARS-CoV-2 WA strain = test: Checkerboard combination assay; type: cell-based; details: Vero E6 cells
SARS-CoV-2 NSP14 MTase [5] = biological target: T1, SARS-CoV-2 NSP14 MTase; test: FP-based FL-NAH displacement assay; type: binding
NS5 MTase of ZIKV = biological target: T2, NS5 MTase of ZIKV (Zika virus, UniProt Q32ZE1); test: FP-based FL-NAH displacement assay, ZIKV NS5; type: binding; details: ZIKV NS5 2.5 µM, 96-well plate
T2 sequence (Q32ZE1 2517-2790): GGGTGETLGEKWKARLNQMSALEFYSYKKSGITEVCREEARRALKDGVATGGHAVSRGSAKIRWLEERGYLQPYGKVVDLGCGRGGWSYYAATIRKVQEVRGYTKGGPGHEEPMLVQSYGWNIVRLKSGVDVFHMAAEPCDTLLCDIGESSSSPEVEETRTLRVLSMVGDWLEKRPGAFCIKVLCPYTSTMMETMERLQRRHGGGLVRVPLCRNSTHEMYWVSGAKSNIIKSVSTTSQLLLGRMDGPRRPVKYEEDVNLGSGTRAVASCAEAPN

[6] = biological target: SARS-CoV-2 NSP16 2’-O MTase (Severe acute respiratory syndrome coronavirus 2, UniProt P0DTD1); test: FP-based FL-NAH displacement assay, NSP16; type: binding; details: NSP16 0.5 µM, 96-well plate

Cc1cc(-c2ccc(/N=N/c3ccc4c(S(=O)(=O)O)cc(S(=O)(=O)O)c(N)c4c3O)c(C)c2)ccc1/N=N/c1ccc2c(S(=O)(=O)O)cc(S(=O)(=O)O)c(N)c2c1O [Evans Blue]
EC50 (SARS-CoV-2 [1]): 31 µM
IC50 (SARS-CoV-2 NSP14 MTase [2]): 4.9 µM

Nc1c(S(=O)(=O)O)cc(Nc2ccc(Nc3nc(Cl)nc(Nc4cccc(S(=O)(=O)O)c4)n3)c(S(=O)(=O)O)c2)c2c1C(=O)c1ccccc1C2=O [Reactive blue 2]
EC50 (SARS-CoV-2 [1]): 16.3 µM

O=C(CCCN1CCC(O)(c2cccc(C(F)(F)F)c2)CC1)c1ccc(F)cc1 [Trifluperidol]
EC50 (SARS-CoV-2 [3]): 59.8 µM
IC50 (SARS-CoV-2 NSP14 MTase [4]): 23 µM

Inauhzin
EC50 (SARS-CoV-2 [3]): 13 µM
IC50 (SARS-CoV-2 NSP14 MTase [4]): 12.9 µM

CC(C)(C)[C@H](NC(=O)C(F)(F)F)C(=O)N1C[C@H]2[C@@H]([C@H]1C(=O)N[C@H](C#N)C[C@@H]1CCNC1=O)C2(C)C [nirmatrelvir]
EC50 shift in the presence of NSC111552 (1.67 µM) (SARS-CoV-2 WA strain): ~1.8 fold

CCC(CC)COC(=O)[C@H](C)N[P@](=O)(OC[C@H]1O[C@@](C#N)(c2ccc3c(N)ncnn23)[C@H](O)[C@@H]1O)Oc1ccccc1 [remdesivir]
EC50 decrease in the presence of NSC111552 ([…]) (SARS-CoV-2 WA strain): about 2.4 fold

C[S+](CC[C@H](N)C(=O)[O-])C[C@H]1O[C@@H](n2cnc3c(N)ncnc32)[C@H](O)[C@@H]1O (some centres unmarked) [SAM, S-adenosylmethionine]
IC50 (SARS-CoV-2 NSP14 MTase [5]): 25 µM
quenching of FP from FL-NAH binding to the ZIKV NS5 MTase (NS5 MTase of ZIKV): quenched
quenching of FP from FL-NAH binding to NSP16 [6]: quenched

NCCOc1cc(C(=O)Nc2cc(OCCN)c3ccccc3n2)nc(C(=O)Nc2cc(OCCN)c3ccccc3n2)c1 [Pyridostatin]
EC50 (SARS-CoV-2 [1]): 3.6 µM
IC50 (SARS-CoV-2 NSP14 MTase [2]): 4.1 µM

Nc1ncnc2c1ncn2[C@@H]1O[C@H](CSCC[C@H](N)C(=O)O)[C@@H](O)[C@H]1O [SAH, S-adenosyl-L-homocysteine]
quenching of FP from FL-NAH binding to the ZIKV NS5 MTase (NS5 MTase of ZIKV): quenched
quenching of FP from FL-NAH binding to NSP16 [6]: quenched

N#Cc1ccc(N2N=C3c4ccc(C(=O)O)cc4CC[C@@H]3[C@@H]2C2CCCC2)cc1Cl [PF-03882845]
EC50 (SARS-CoV-2 [3]): 11 µM
